Laboratory results from US20070117743A1, “New antitumoral compounds” (priority 2003, published 2007).
Where a SMILES comes first, the peptide text is derived from it. Bridges are numbered along the chain shown (N, C = ends). [ ]: non-standard residue; d: D form. The star is where a group is joined. d(aIle) = CC[C@H](C)[C@@H](N)C(=O)O; d(aThr) = C[C@@H](O)[C@@H](N)C(=O)O; Hexanoyl(5-Me) = CC(C)CCCC(=O)*; Orn = NCCC[C@H](N)C(=O)O; Dhb = C/C=C(\N)C(=O)O

Assays:
Format in all cases: cell-based, human
HT-29 = test: SRB colorimetric assay of cell growth and viability, HT-29; conditions: 48 hours exposure; for GI50: read-out: GI50 HT-29; for CC50: read-out: LC50 HT-29
IGROV-ET = test: SRB colorimetric assay of cell growth and viability, IGROV-ET; conditions: 48 hours exposure; for CC50: read-out: LC50 IGROV-ET
LoVo-Dox = test: SRB colorimetric assay of cell growth and viability, LoVo-Dox; conditions: 48 hours exposure; for CC50: read-out: LC50 LOVO-DOX
How it was run: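 SRB staining (0.4% wt/vol in 1% acetic acid, 10 min, room temperature) of cells fixed with 50% TCA follows a 48-hour exposure to compound. Plating density is 5×10^3 cells/well, and the OD is taken at 490 nm.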

LoVo = test: SRB colorimetric assay of cell growth and viability, LoVo; conditions: 48 hours exposure; for CC50: read-out: LC50 LOVO
SK-MEL-28 = test: SRB colorimetric assay of cell growth and viability, SK-MEL-28; conditions: 48 hours exposure; for CC50: read-out: LC50 MEL-28
A-549 = test: SRB colorimetric assay of cell growth and viability, A-549; conditions: 48 hours exposure; for GI50: read-out: GI50 A-549; for CC50: read-out: LC50 A-549
IGROV-1 = test: SRB colorimetric assay of cell growth and viability, IGROV-1; conditions: 48 hours exposure
PANC-1 = test: SRB colorimetric assay of cell growth and viability, PANC-1; conditions: 48 hours exposure; for CC50: read-out: LC50 PANC-1
K-562 = test: SRB colorimetric assay of cell growth and viability, K-562; conditions: 48 hours exposure; for CC50: read-out: LC50 K-562
SK-OV-3 = test: SRB colorimetric assay of cell growth and viability, SK-OV-3; conditions: 48 hours exposure; for GI50: read-out: GI50 SKOV-3; for CC50: read-out: LC50 SKOV-3
Description: The finality of this assay is to interrupt the growth of a “in vitro” tumor cell culture by means a continued exhibition of the cells to the sample to be testing.
A colorimetric type of assay, using sulforhodamine B (SRB) reaction has been adapted for a quantitative measurement of cell growth and viability [following the technique described by Philip Skehan, et al. (1990), New colorimetric cytotoxicity assay for anticancer drug screening, J. Natl. Cancer Inst., 82:1107-1112].
This form of the assay employs 96 well cell culture microplates of 9 mm diameter (Faircloth, 1988; Mosmann, 1983). Most of the cell lines are obtained from American Type Culture Collection (ATCC) derived from different human cancer types.
Cells are maintained in RPMI 1640 10% FBS, supplemented with 0.1 g/l penicillin and 0.1 g/l streptomycin sulfate and then incubated at 37° C., 5% CO2 and 98% humidity. For the experiments, cells were harvested from subconfluent cultures using trypsin and resuspended in fresh medium before plating.
Cells are seeded in 96 well microtiter plates, at 5×10^3 cells per well in aliquots of 195 μL medium, and they are allowed to attach to the plate surface by growing in drug free medium for 18 hours. Afterward, samples are added in aliquots of 5 μL in a ranging from 10 to 10^−8 μg/mL, dissolved in DMSO:EtOH:PBS (0.5:0.5:99). After 48 hours exposure, the antitumor effect are measured by the SRB methodology: cells are fixed by adding 50 μL of cold 50% (wt/vol) trichloroacetic acid (TCA) and incubating for 60 minutes at 4° C. Plates are washed with deionized water and dried. One hundred μL of SRB solution (0.4% wt/vol in 1% acetic acid) is added to each microtiter well and incubated for 10 minutes at room temperature. Unbound SRB is removed by washing with 1% acetic acid. Plates are air dried and bound stain is solubilized with Tris buffer. Optical densities are read on a automated spectrophotometric plate reader at a single wavelength of 490 nm.
The values for mean+/− SD of data from triplicate wells are calculated. Some parameters for cellular responses can be calculated: GI=growth inhibition, TGI=total growth inhibition (cytostatic effect) and LC=cell killing (cytotoxic effect).

DU-145 = test: SRB colorimetric assay of cell growth and viability, DU-145; conditions: 48 hours exposure
LNCaP = test: SRB colorimetric assay of cell growth and viability, LNCaP; conditions: 48 hours exposure; for GI50: read-out: GI50 LN-caP; for CC50: read-out: LC50 LN-caP

SMILES | TGI HT-29 (HT-29) [Molar] | GI50 (HT-29) [nM] | CC50 (HT-29) [nM] | GI50 (IGROV-ET) [nM] | TGI IGROV-ET (IGROV-ET) [Molar] | CC50 (IGROV-ET) [nM] | GI50 (LoVo-Dox) [nM] | TGI LOVO-DOX (LoVo-Dox) [Molar] | GI50 (LoVo) [nM] | TGI LOVO (LoVo) [Molar] | CC50 (LoVo) [nM] | GI50 (SK-MEL-28) [nM] | TGI MEL-28 (SK-MEL-28) [Molar] | CC50 (SK-MEL-28) [nM] | TGI A-549 (A-549) [Molar] | GI50 (A-549) [nM] | CC50 (A-549) [nM] | GI50 (IGROV-1) [nM] | LC50 (concentration causing 50% net cell killing) (IGROV-1) [nM] | TGI IGROV (IGROV-1) [Molar] | also measured
C/C=C1\NC(=O)[C@H](Cc2ccccc2)NC(=O)[C@@H](C(C)C)NC(=O)[C@@H]([C@@H](C)CC)NC(=O)[C@H](NC(=O)[C@H](NC(=O)[C@H](CCC(=O)O)NC(=O)[C@H]2CCCN2C(=O)[C@H](NC(=O)[C@@H](NC(=O)[C@@H](NC(=O)[C@H](NC(=O)CCCC(C)C)C(C)C)[C@@H](C)O)C(C)C)C(C)C)[C@@H](C)CC)[C@@H](C)OC(=O)[C@H](C(C)C)NC1=O [Compound 4, [Glu^8]-KF] ({Hexanoyl(5-Me)}-[dV]TV[dV][dP]E[d(aIle)][d(aThr)][d(aIle)][dV]F[Dhb]V; ester 8-C) | 2.00E−06 | 884 | 4550 | 817 | 1.69E−06 | 3520 | 757 | 1.77E−06 | 348 | 6.45E−07 | 2650 | 2950 | 6.70E−06 | 6700 | 4.02E−06 | 1770 | 6700 | 490 | 3310 | 1.29E−06 | CC50 (LoVo-Dox): 4150 nM; GI50 (PANC-1): 1820 nM; TGI PANC-1 (PANC-1): 3.46E−06 Molar; CC50 (PANC-1): 6600 nM; GI50 (K-562): 2110 nM; TGI K-562 (K-562): 5.10E−06 Molar; CC50 (K-562): 6700 nM; TGI SKOV-3 (SK-OV-3): 5.85E−07 Molar; GI50 (SK-OV-3): 195 nM; CC50 (SK-OV-3): 2260 nM; GI50 (DU-145): 1030 nM; LC50 (concentration causing 50% net cell kill) (DU-145): 3880 nM; TGI DU-145 (DU-145): 2.00E−06 Molar; TGI LN-caP (LNCaP): 1.19E−06 Molar; GI50 (LNCaP): 371 nM; CC50 (LNCaP): 3620 nM
C/C=C1\NC(=O)[C@H](Cc2ccccc2)NC(=O)[C@@H](C(C)C)NC(=O)[C@@H]([C@@H](C)CC)NC(=O)[C@H](NC(=O)[C@H](NC(=O)[C@H](CCCN)NC(=O)[C@H]2CCCN2C(=O)[C@H](NC(=O)CCCC(C)C)C(C)C)[C@@H](C)CC)[C@@H](C)OC(=O)[C@H](C(C)C)NC1=O [Compound 31, [noVal^11, noThr^12, noD-Val^13]-KF] ({Hexanoyl(5-Me)}-[dV][dP][Orn][d(aIle)][d(aThr)][d(aIle)][dV]F[Dhb]V; ester 5-C) | 8.49E−06 | 8490 | 8490 | 2690 | 4.07E−06 | 6180 | 2380 | 4.00E−06 | 8490 | 8.49E−06 | 8490 | 4210 | 8.49E−06 | 8490 | 8.49E−06 | 5910 | 8490 | 2690 | 6250 | 4.10E−06 | CC50 (LoVo-Dox): ≥ 6750 nM; GI50 (PANC-1): 2120 nM; TGI PANC-1 (PANC-1): 3.63E−06 Molar; CC50 (PANC-1): 6230 nM; GI50 (K-562): 2210 nM; TGI K-562 (K-562): 4.26E−06 Molar; CC50 (K-562): 8180 nM; TGI SKOV-3 (SK-OV-3): 5.03E−06 Molar; GI50 (SK-OV-3): 2210 nM; CC50 (SK-OV-3): 8490 nM; GI50 (DU-145): 3300 nM; LC50 (concentration causing 50% net cell kill) (DU-145): 8490 nM; TGI DU-145 (DU-145): 6.37E−06 Molar; TGI LN-caP (LNCaP): 3.79E−06 Molar; GI50 (LNCaP): 1940 nM; CC50 (LNCaP): 7390 nM
C/C=C1\NC(=O)[C@H](Cc2ccccc2)NC(=O)[C@@H](C(C)C)NC(=O)[C@@H]([C@@H](C)CC)NC(=O)[C@H](NC(=O)[C@H](NC(=O)[C@H](CCCN)NC(=O)[C@H]2CCCN2C(=O)[C@H](NC(=O)[C@@H](NC(=O)[C@@H](NC(=O)[C@H](NC(=O)CCCCC(C)(F)F)C(C)C)[C@@H](C)O)C(C)C)C(C)C)[C@@H](C)CC)[C@@H](C)OC(=O)[C@H](C(C)C)NC1=O [Compound 28, [6,6-dFHep^14]-KF] | 1.54E−06 | 649 | 3630 | 228 | 3.59E−07 | 568 | 172 | 3.18E−07 | 196 | 3.70E−07 | 872 | 1470 | 2.55E−06 | 4410 | 1.04E−06 | 328 | 4250 | 334 | 2550 | 7.86E−07 | GI50 (PANC-1): 1480 nM; TGI PANC-1 (PANC-1): 2.52E−06 Molar; CC50 (PANC-1): 4300 nM; GI50 (K-562): 1880 nM; TGI K-562 (K-562): 2.99E−04 Molar; CC50 (K-562): 4750 nM; TGI SKOV-3 (SK-OV-3): 3.36E−07 Molar; GI50 (SK-OV-3): 145 nM; CC50 (SK-OV-3): 1010 nM; GI50 (DU-145): 215 nM; LC50 (concentration causing 50% net cell kill) (DU-145): 2090 nM; TGI DU-145 (DU-145): 5.59E−07 Molar; TGI LN-caP (LNCaP): 1.09E−06 Molar; GI50 (LNCaP): 363 nM; CC50 (LNCaP): 3100 nM
